Experimental data published in patent US8318793B2, “Heterocyclic compounds and their use as glycogen synthase kinase-3 inhibitors” (Abbott GmbH & Co. KG, priority 2009, dated 2012).

Molecular target: T1, human Glycogen Synthase Kinase-3 beta (hGSK-3β) (Homo sapiens, UniProt P49841)
T1 construct: purchased Upstate cell signaling solutions
Test: Biochemical hGSK-3beta assay (33P-ATP phosphorylation of biotinylated peptide substrate)
Conditions: 10 μM ATP, 30 minutes at room temperature; read-out: GSK-3β IC50
Experimental: Methods—Biochemical hGSK-3beta Assay
Compounds were tested for their ability to inhibit human Glycogen Synthase Kinase-3 beta (hGSK-3β) to phosphorylate biotin-[…](pS)EDEEE. Compounds were incubated with 0.5 μCi 33P-ATP, 10 μM ATP, 0.0125U hGSK-3β (Upstate cell signaling solutions) and 1 μM substrate (biotin-[…](pS)EDEEE) in 50 mM HEPES, 10 mM MgCl2, […], 1 mM DTT, 0.0075% Triton, 2% DMSO (total volume 50 μL) for 30 minutes at room temperature. The incubation was stopped by addition of an equal volume of 100 mM EDTA, 4M NaCl. 80 μL of this mixture was added to streptavidin-coated Flashplates (PerkinElmer). Following a wash step, 33P incorporation was quantified on a MicroBeta microplate liquid scintillation counter (PerkinElmer). IC50's were determined by fitting a sigmoidal dose-response curve to the counts obtained at the different concentrations in GraphPad Prism.

T1 sequence (P49841 whole entry): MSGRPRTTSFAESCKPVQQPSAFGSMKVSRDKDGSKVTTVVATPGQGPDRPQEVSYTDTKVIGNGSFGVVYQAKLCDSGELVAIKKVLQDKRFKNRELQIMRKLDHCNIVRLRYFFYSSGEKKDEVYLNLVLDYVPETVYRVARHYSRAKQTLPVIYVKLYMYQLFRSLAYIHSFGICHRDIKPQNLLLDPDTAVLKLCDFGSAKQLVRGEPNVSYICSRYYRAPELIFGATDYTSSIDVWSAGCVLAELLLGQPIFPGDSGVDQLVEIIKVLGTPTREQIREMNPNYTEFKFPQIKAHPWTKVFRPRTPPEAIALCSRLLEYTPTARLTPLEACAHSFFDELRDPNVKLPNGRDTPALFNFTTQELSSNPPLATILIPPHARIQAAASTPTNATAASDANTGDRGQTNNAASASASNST

Structure (SMILES) | IC50 [µM]
Oc1[nH]c2cnccc2c1-c1ccc(CN2CCOCC2)cn1 [Example 3, 3-(5-(Morpholinomethyl)-pyridin-2-yl)-1H-pyrrolo[2,3-c]pyridin-2-ol] | 0.1 to 10
Oc1[nH]c2ccc(Br)nc2c1-c1ccc(CN2CCOCC2)cn1 [Example 4, 5-Bromo-3-(5-(morpholinomethyl)-pyridin-2-yl)-1H-pyrrolo[3,2-b]pyridin-2-ol] | < 0.1
N#Cc1ccc2[nH]c(O)c(-c3ccc(CN4CC5COCC5C4)cn3)c2c1 (stereo not drawn) [Example 1, 3-(5-((Dihydro-1H-furo[3,4-c]pyrrol-5(3H,6H,6aH)-yl)methyl)pyridin-2-yl)-2-hydroxy-1H-indole-5-carbonitrile] | < 0.1
Oc1[nH]c2ncccc2c1-c1ccc(CN2CCOCC2)cn1 [Example 2, 3-(5-(Morpholinomethyl)-pyridin-2-yl)-1H-pyrrolo[2,3-b]pyridin-2-ol] | 10 to 100
[O-][n+]1cc(CN2CCOCC2)ccc1-c1c(O)[nH]c2ccc(Br)nc12 [Example 4.1, 2-(5-Bromo-2-hydroxy-1H-pyrrolo[3,2-b]pyridin-3-yl)-5-(morpholinomethyl)-pyridine 1-oxide] | 0.1 to 10
N#Cc1ccc2[nH]c(O)c(-c3ccc(CN4CC[C@H]5CNC[C@H]54)cn3)c2c1 (stereo in doubt) [Example 5, 3-(5-(((3aS,6aS)-Hexahydropyrrolo[3,4-b]pyrrol-1(2H)-yl)methyl)-pyridin-2-yl)-2-hydroxy-1H-indole-5-carbonitrile] | < 0.1
